Consider 6 molecules from PubChem BioAssay (NCI).

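Test compounds were applied to cells in 96-well plates for 48 hours at 5 doses. TGI marks complete inhibition of growth.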

Test systems include HCC-2998 colon; NCI-H522 lung; SNB-75 CNS; RPMI-8226 leukemia; HT29 colon; BT-549 breast; ACHN renal; HOP-62 NSCLC; KM12 colon; NCI/ADR-RES ovarian; MALME-3M melanoma; SK-OV-3 ovarian; SNB-19 CNS; MDA-MB-435; 786-0 renal; SK-MEL-28 melanoma; SF-295 CNS; T-47D breast.
Holding throughout (assay): inhibition of tumour cell growth, NCI panel, 48 h

Take `COc1cccc2c1C1(O)C2CCCCCCCCCC12OCCCO2` (stereo not drawn): the TGI in the assay on HCC-2998 colon is above 100 µM; in the assay on NCI-H522 lung, above 96.5 µM; in the assay on SNB-75 CNS, above 91.8 µM; in the assay on RPMI-8226 leukemia, above 80.1 µM; with HT29 colon, above 59.2 µM; in the assay with BT-549 breast it was above 100 µM. The TGI in the assay on ACHN renal, in the assay with HOP-62 NSCLC, with KM12 colon, in the assay on NCI/ADR-RES ovarian, in the assay with MALME-3M melanoma and with SK-OV-3 ovarian was above 100 µM each time. For the same molecule, the TGI in the assay on SNB-19 CNS is above 100 µM; in the assay with MDA-MB-435 it was above 100 µM; in the assay with 786-0 renal, above 100 µM; with SK-MEL-28 melanoma it was above 100 µM; in the assay with SF-295 CNS, above 86.9 µM; in the assay with T-47D breast, above 100 µM.

On to `CN(C)CCNCc1ccc2c(-c3ccccc3)nc3cc(Cl)c(Cl)cc3n12`, for which the TGI in the assay on HCC-2998 colon stood at 5.83 µM; with NCI-H522 lung, 27.8 µM; with SNB-75 CNS, 20.2 µM; with RPMI-8226 leukemia it was 36.8 µM; in the assay with HT29 colon, 16.7 µM; with BT-549 breast it was 30.9 µM. Besides, the TGI in the assay with ACHN renal is 14.8 µM; in the assay with HOP-62 NSCLC, 27.4 µM; with KM12 colon, 24.7 µM; with NCI/ADR-RES ovarian, 31.4 µM; with MALME-3M melanoma, 33.1 µM; in the assay with SK-OV-3 ovarian, 17.4 µM. In addition, the TGI in the assay on SNB-19 CNS turned out to be 28.9 µM; with MDA-MB-435 it was 21.9 µM; with 786-0 renal it was 15.2 µM; in the assay with SK-MEL-28 melanoma, 14.1 µM; in the assay with SF-295 CNS, 27.7 µM; in the assay with T-47D breast, 15.1 µM.

As for `O=[N+]([O-])c1ccc(-n2nc3ccc4c(no[n+]4[O-])c3[n+]2[O-])c([N+](=O)[O-])c1`, the TGI was 8.77 µM with HCC-2998 colon; 4.03 µM with NCI-H522 lung; 23.5 µM with SNB-75 CNS; 6.8 µM in the assay on RPMI-8226 leukemia; 15.1 µM in the assay on HT29 colon; 9.49 µM in the assay with BT-549 breast. The TGI in the assay with ACHN renal is 5.7 µM; in the assay with HOP-62 NSCLC it was 10.1 µM; in the assay on KM12 colon, 13.1 µM; with NCI/ADR-RES ovarian, 11 µM; in the assay with MALME-3M melanoma, 7.45 µM; in the assay with SK-OV-3 ovarian it was 23 µM. Besides, the TGI with SNB-19 CNS was determined as 16.5 µM; in the assay with MDA-MB-435, 7.39 µM; in the assay on 786-0 renal, 7.97 µM; in the assay on SK-MEL-28 melanoma it was 6.47 µM; with SF-295 CNS it was 11.9 µM; in the assay with T-47D breast, 6.63 µM.

Turning to `O=c1cc(-c2ccccc2)[nH]c2ccc(S)cc12`, the TGI with HCC-2998 colon was 51.9 µM; in the assay with NCI-H522 lung it was 64.5 µM; in the assay on SNB-75 CNS, 76.1 µM; with RPMI-8226 leukemia, above 100 µM; in the assay with HT29 colon, 93.1 µM; in the assay on BT-549 breast it was 55.2 µM. The TGI was 99.7 µM with ACHN renal; above 100 µM in the assay with HOP-62 NSCLC; above 100 µM with KM12 colon; 56.3 µM with NCI/ADR-RES ovarian; 57.7 µM in the assay with MALME-3M melanoma; above 100 µM with SK-OV-3 ovarian. The TGI is above 100 µM in the assay with SNB-19 CNS; 45.4 µM with MDA-MB-435; above 100 µM in the assay with 786-0 renal; 64.6 µM with SK-MEL-28 melanoma; above 100 µM with SF-295 CNS; 68 µM in the assay on T-47D breast.

Regarding `O=C1C[C@H](COCc2ccccc2)NC(=O)C[C@H](COCc2ccccc2)NC(=O)C[C@H](COCc2ccccc2)N1`, the TGI in the assay on HCC-2998 colon is above 100 µM; in the assay on NCI-H522 lung, above 100 µM; with SNB-75 CNS, 8.27 µM; in the assay with RPMI-8226 leukemia, above 100 µM; in the assay on HT29 colon, above 100 µM; with BT-549 breast, above 100 µM. The TGI with ACHN renal was above 100 µM; in the assay with HOP-62 NSCLC, above 100 µM; in the assay on KM12 colon, above 100 µM; in the assay with NCI/ADR-RES ovarian, above 100 µM; in the assay on MALME-3M melanoma, above 100 µM; in the assay with SK-OV-3 ovarian it was 57.3 µM. In addition, the TGI in the assay on SNB-19 CNS was above 100 µM; in the assay on MDA-MB-435 it was above 100 µM; in the assay with 786-0 renal it was above 100 µM; with SK-MEL-28 melanoma it was above 100 µM; in the assay on SF-295 CNS, 89.2 µM; with T-47D breast it was above 100 µM.

On to `COc1ccc(/C=C2\C[C@H]3[C@@H]4CC=C5C[C@@H](OC(C)=O)CC[C@]5(C)[C@H]4CC[C@]3(C)\C2=N\O)cc1OC`, for which the TGI in the assay on HCC-2998 colon is above 100 µM; in the assay with NCI-H522 lung, above 100 µM; with SNB-75 CNS, above 100 µM; in the assay with RPMI-8226 leukemia, 88.2 µM; with HT29 colon it was above 100 µM; in the assay with BT-549 breast it was above 100 µM. In addition, the TGI with ACHN renal, in the assay on HOP-62 NSCLC, with KM12 colon, in the assay on NCI/ADR-RES ovarian, in the assay with MALME-3M melanoma and in the assay with SK-OV-3 ovarian was above 100 µM in each case. The TGI in the assay with SNB-19 CNS, in the assay with MDA-MB-435, in the assay on 786-0 renal, in the assay with SK-MEL-28 melanoma, in the assay on SF-295 CNS and in the assay on T-47D breast was above 100 µM throughout.
